This is an account of results in the NIST ThermoML archive (doi:10.1016/j.tca.2005.06.034).

The conditions of series [1]: Crystal.
Series [2] is described as follows: Molar enthalpy of transition or fusion. The settings on record: Crystal; DSC.

The structures appear in SMILES notation. Numbers after ± are expanded uncertainties.

`CN1N=N[NH+](N)C1N.O=[N+]([O-])[O-]` (stereo not drawn) [1,5-diamino-4-methyl-4,5-dihydro-1H-tetrazol-1-ium nitrate]: the mass density in series [1] (571.3 K, 101.33 kPa, X-ray) turned out to be 1506 ± 2 kg/m3. Also, the Normal melting temperature in series [1] (DTA) is 121.00 ± 1 °C. For the same molecule, the “Molar enthalpy of transition or fusion” value in series [2] was found to be 2.16e-05 ± 7.1e-07 kJ/mol.

The mass density is mass per unit of volume.
